In patent US11485728B2, “Small molecules for the treatment of autoimmune diseases and cancer” (Athos Therapeutics, Inc., priority 2020, dated 2022):

Experiments:
Assay type in all cases: in vitro ADME
CYP2C19 = target: T1, CYP2C19 (Homo sapiens, UniProt P33261); assay: CYP-direct inhibition, CYP2C19
T1 construct: from tissue; host or cells: pooled human liver microsomes
Procedure: (§1) Many drugs inhibit cytochrome P450 enzymes to cause clinically significant changes in the pharmacokinetics of other drugs. In vitro cytochrome P450 inhibition, can provide crucial information in evaluating potential clinical drug-drug interactions and is useful for focusing in vivo tests to areas of concern. The cytochrome P450 inhibition assay was developed by preparing a working cocktail solution consisting of six probe substrates 10 μM ethoxy-resorufin (CYP1A2), 100 μM rosiglitazone (CYP2C8), 50 μM diclofenac (CYP2C9), 300 μM S-mephenytoin (CYP2C19), 50 μM dextromethorphan (CYP2D6), and 20 μM midazolam (CYP3A4). A mixture solution consists of 140 uL of 0.286 mg/mL of pooled human liver microsome working solution and 20 uL working solutions of test articles, standard control inhibitors, or positive control placebo and 20 uL of substrate cocktail mixture working solution was prepared. The mixture solution was pre-warm in a gentle shaking bath at 37±2° C. for 5 minutes. The enzymatic reaction started by adding 20 uL of NRS working solution to the mixture solution and incubated for 10 minutes at 37±2° C. To stop the reaction, an addition of 400 μL cold stop solution (acetonitrile containing 50 ng/mL Tolbutamide as an internal standard (I.Std.) was added to the mixture solution. The final concentration of test article, inhibitors, substrates, and cofactors are noted in Table 0.1 below. Two individual samples were prepared for each test compound. The extracted samples were vortexed and then centrifuged at 4500 rpm for 7 minutes using Eppendorf Centrifuge 5910R. 200 uL of supernatant was diluting with 200 uL of 50% Methanol into 96-DW plate for LC/MS/MS analysis
(§2) Concentration-response plots are used to determine the effects of an inhibitor on an enzymatic reaction. A typical concentration-response plot provides fractional activity (Y axis) is plotted as a function of log inhibitor concentration (X axis). The data are fitted using a standard Sigmoidal dose-response equation which is also called a […] logistic equation. The concentration of compound that results in 50% inhibition of maximal activity is termed as the IC50 (inhibitor concentration yielding 50% inhibition). IC50 value is calculated using Prism GraphPad software, version 9. […].
(§3) Cytochrome P450 inhibition of a drug is a key factor in determining pharmacokinetic drug-drug interactions. The objective of this study was to evaluate the inhibition potential of G9a inhibitors on six (6) major human cytochrome P450 enzymes, including CYP1A2, CYP2C8, CYP2C9, CYP2C19, CYP2D6, and CYP3A4. Inhibition was determined by using a substrate cocktail and analyzing the rate of specific metabolites formation. The cytochrome P450 inhibition assay was developed using a cocktail consisting of six (6) probe substrates ethoxy-resorufin (CYP1A2), rosiglitazone (CYP2C8), diclofenac (CYP2C9), S-mephenytoin (CYP2C19), dextromethorphan (CYP2D6), and midazolam (CYP3A4). The cocktail was incubated in human liver microsome with NADPH regenerating system (NRS) in a shaking bath at 37±2° C. The formation of specific metabolites was monitored by LC/MS/MS. Test compound was added to the cocktail-liver microsome mixture at varying concentrations and its effect on cytochrome P450 activity was determined by analyzing the rate of specific metabolite formation. The percent inhibition was calculated and plotted with reference to the concentration, and the IC50 value for inhibition was derived by fitting the data with a using log(inhibitor) vs. normalized response with variable slope least squares fit by Graphpad Prism® software. […].

[1] = In-vitro half-life in mouse liver microsomes; details: Mouse liver microsomes 0.5 mg/mL; 1 μg/mL drug; NRS; read-out: Metabolic Half-life
Summary of the method: (§4)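 Compound at 1 μg/mL final was incubated with 0.5 mg/mL liver microsomes plus NADPH regenerating system at 37° C, sampled in duplicate at 0–60 min. Remaining parent was measured by LC-MS/MS, and half-life was calculated from first-order log-linear regression of % remaining versus time.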

[2] = In-vitro half-life in rat liver microsomes; details: Rat liver microsomes 0.5 mg/mL; 1 μg/mL drug; NRS; read-out: Metabolic Half-life
Summary of the method: as §4

CYP2C9 = target: T2, CYP2C9 (Homo sapiens, UniProt P11712); assay: CYP-direct inhibition, CYP2C9
T2 construct: from tissue; host or cells: pooled human liver microsomes
Procedure: as §1, §2, §3

CYP2D6 = target: T3, CYP2D6 (Homo sapiens, UniProt P10635); assay: CYP-direct inhibition, CYP2D6; details: human liver microsome; substrate dextromethorphan; read-out: IC50 CYP-2D6
T3 construct: from tissue; host or cells: pooled human liver microsomes
Procedure: as §1, §2, §3

CYP3A4 = target: T4, CYP3A4 (Homo sapiens, UniProt P08684); assay: CYP-direct inhibition, CYP3A4
T4 construct: from tissue; host or cells: pooled human liver microsomes
Procedure: as §1, §2, §3

[3] = In-vitro half-life in human liver microsomes; details: Human liver microsomes 0.5 mg/mL; 1 μg/mL drug; NRS; read-out: Metabolic Half-life
Summary of the method: as §4

T4 sequence (P08684 whole entry): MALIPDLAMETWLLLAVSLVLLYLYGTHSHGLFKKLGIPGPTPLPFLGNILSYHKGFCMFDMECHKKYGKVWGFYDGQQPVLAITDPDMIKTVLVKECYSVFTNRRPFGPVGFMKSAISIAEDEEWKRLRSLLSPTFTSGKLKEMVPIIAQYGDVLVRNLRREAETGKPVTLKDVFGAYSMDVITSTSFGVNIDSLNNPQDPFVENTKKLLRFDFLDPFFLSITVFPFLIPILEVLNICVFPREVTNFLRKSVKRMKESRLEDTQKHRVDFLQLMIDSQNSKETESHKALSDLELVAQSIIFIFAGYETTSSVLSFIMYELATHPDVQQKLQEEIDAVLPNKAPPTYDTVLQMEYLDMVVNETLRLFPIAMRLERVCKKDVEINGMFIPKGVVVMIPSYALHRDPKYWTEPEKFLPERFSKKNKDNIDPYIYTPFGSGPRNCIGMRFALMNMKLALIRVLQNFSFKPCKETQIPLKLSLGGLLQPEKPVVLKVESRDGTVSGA
T1 sequence (P33261 whole entry): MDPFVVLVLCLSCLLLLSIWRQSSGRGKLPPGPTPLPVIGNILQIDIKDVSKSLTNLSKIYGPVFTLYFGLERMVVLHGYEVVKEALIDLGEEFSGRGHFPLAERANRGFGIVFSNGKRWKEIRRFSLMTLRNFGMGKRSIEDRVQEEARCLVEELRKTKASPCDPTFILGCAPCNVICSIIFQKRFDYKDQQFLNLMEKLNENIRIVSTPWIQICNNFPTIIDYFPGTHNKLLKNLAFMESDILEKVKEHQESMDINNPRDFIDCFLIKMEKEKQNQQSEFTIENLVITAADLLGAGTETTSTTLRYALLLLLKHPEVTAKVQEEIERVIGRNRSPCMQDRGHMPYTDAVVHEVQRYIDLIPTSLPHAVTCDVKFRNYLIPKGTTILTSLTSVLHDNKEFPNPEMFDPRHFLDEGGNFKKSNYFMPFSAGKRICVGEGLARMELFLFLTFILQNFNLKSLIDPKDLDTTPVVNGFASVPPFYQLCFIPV
T3 sequence (P10635 whole entry): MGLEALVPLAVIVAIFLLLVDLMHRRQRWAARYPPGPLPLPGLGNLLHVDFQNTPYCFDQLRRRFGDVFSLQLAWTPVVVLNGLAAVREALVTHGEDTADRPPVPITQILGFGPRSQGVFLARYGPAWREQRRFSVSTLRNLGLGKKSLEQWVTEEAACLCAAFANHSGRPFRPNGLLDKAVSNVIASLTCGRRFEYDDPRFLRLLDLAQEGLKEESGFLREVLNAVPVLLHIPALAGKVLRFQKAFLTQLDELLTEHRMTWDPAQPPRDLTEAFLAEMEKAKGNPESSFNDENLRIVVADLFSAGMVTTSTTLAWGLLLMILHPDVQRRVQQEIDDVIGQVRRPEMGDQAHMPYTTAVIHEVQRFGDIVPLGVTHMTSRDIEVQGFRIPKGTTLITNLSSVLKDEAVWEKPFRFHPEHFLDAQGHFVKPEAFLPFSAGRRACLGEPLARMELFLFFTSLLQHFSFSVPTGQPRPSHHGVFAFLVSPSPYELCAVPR
T2 sequence (P11712 whole entry): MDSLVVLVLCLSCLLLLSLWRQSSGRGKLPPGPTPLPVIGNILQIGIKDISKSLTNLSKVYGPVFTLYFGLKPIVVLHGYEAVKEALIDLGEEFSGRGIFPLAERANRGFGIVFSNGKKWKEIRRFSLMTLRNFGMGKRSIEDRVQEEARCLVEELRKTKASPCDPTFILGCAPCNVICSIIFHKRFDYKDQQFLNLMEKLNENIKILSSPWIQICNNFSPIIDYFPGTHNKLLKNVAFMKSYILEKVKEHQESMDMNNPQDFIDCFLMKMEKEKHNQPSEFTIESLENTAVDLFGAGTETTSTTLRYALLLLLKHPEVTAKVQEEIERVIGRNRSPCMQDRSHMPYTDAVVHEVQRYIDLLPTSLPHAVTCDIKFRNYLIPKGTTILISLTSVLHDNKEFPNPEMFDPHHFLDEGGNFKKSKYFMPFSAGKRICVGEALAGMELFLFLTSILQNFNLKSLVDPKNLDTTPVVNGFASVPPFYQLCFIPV

Row | SMILES | IC50 (CYP2C19) | half-life at 1 μg/mL [1] | half-life at 1 μg/mL [2] | IC50 (CYP2C9) | IC50 (CYP2D6) | IC50 (CYP3A4) | half-life at 1 μg/mL [3]
1 | COc1cc2c(NC3CCS(=O)(=O)CC3)nc(N3CCC(F)(F)CC3)nc2cc1OCCCN1CCCC1 [Compound 1, 4-((2-(4,4-difluoropiperidin-1-yl)-6-methoxy-7-(3-(pyrrolidin-1-yl)propoxy)quinazolin-4-yl)amino)tetrahydro-2H-thiopyran 1,1-dioxide] | > 100 µM | > 1 h | > 1 h | > 100 µM | 21.9 µM | > 100 µM | > 1 h
2 | COc1cc2c(NC3COC3)nc(N3CCC(F)(F)CC3)nc2cc1OCCCN1CCCC1 [Compound 11, 2-(4,4-difluoropiperidin-1-yl)-6-methoxy-N-(oxetan-3-yl)-7-(3-(pyrrolidin-1-yl)propoxy)quinazolin-4-amine] | > 100 µM | > 1 h | > 1 h | > 100 µM | 29.5 µM | > 100 µM | > 1 h
3 | COc1cc2c(NC3CCOCC3)nc(N3CCCN(C)CC3)nc2cc1OCCCN1CCCC1 [Compound 237, 6-methoxy-2-(4-methyl-1,4-diazepan-1-yl)-7-(3-(pyrrolidin-1-yl)propoxy)-N-(tetrahydro-2H-pyran-4-yl)quinazolin-4-amine] | > 100 µM | 0.44 h | 0.367 h | > 100 µM | 86.2 µM | > 100 µM | > 1 h
4 | COc1cc2c(NC3CCS(=O)(=O)CC3)nc(N3CCOCC3)nc2cc1OCCCN1CCCC1 [Compound 102, 4-((6-methoxy-2-morpholino-7-(3-(pyrrolidin-1-yl)propoxy)quinazolin-4-yl)amino)tetrahydro-2H-thiopyran 1,1-dioxide] | > 100 µM | > 1 h | > 1 h | > 100 µM | 29 µM | > 100 µM | > 1 h
5 | COCCN1CCC(Nc2nc(N3CCC(F)(F)CC3)nc3cc(OCCCN4CCCC4)c(OC)cc23)CC1 [Compound 3, 2-(4,4-difluoropiperidin-1-yl)-6-methoxy-N-(1-(2-methoxyethyl)piperidin-4-yl)-7-(3-(pyrrolidin-1-yl)propoxy)quinazolin-4-amine] | > 100 µM | > 1 h | > 1 h | > 100 µM | 9.55 µM | > 100 µM | > 1 h
6 | COc1cc2c(NCC(N)=O)nc(N3CCC(F)(F)CC3)nc2cc1OCCCN1CCCC1 [Compound 9, 2-((2-(4,4-difluoropiperidin-1-yl)-6-methoxy-7-(3-(pyrrolidin-1-yl)propoxy)quinazolin-4-yl)amino)acetamide] | > 100 µM | > 1 h | > 1 h | > 100 µM | > 100 µM | > 100 µM | > 1 h
7 | COCCNc1nc(N2CCC(F)(F)CC2)nc2cc(OCCCN3CCCC3)c(OC)cc12 [Compound 4, 2-(4,4-difluoropiperidin-1-yl)-6-methoxy-N-(2-methoxyethyl)-7-(3-(pyrrolidin-1-yl)propoxy)quinazolin-4-amine] | 60.9 µM | > 1 h | > 1 h | > 100 µM | 13.3 µM | > 100 µM | > 1 h
